Measurements taken from US20090018134A1, “Compounds - 945” (AstraZeneca AB, priority 2007, published 2009).

What was measured:
[1] = target: T1, mTOR (Homo sapiens, UniProt P42345); test: In Vitro mTOR Kinase Assay (Echo), Test (a)(ii); format: biochemical
T1 construct: FLAG; made in house
How it was run: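 FLAG-tagged truncated mTOR (residues 1362-2549), expressed in HEK293 and purified via the FLAG tag, phosphorylated a biotinylated peptide over 2 hours at room temperature. EDTA stopped the reaction. Phospho-T389 was detected overnight by AlphaScreen using the p70 S6K T389 antibody with Protein A/streptavidin beads; IC50 reported.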

[2] = target: T1, mTOR; test: mTOR Kinase Assay (Echo); format: biochemical
[3] = table of enzyme assay Test (a)(ii), read-out: Test (a)(ii) IC50

T1 sequence (P42345 1362-2549): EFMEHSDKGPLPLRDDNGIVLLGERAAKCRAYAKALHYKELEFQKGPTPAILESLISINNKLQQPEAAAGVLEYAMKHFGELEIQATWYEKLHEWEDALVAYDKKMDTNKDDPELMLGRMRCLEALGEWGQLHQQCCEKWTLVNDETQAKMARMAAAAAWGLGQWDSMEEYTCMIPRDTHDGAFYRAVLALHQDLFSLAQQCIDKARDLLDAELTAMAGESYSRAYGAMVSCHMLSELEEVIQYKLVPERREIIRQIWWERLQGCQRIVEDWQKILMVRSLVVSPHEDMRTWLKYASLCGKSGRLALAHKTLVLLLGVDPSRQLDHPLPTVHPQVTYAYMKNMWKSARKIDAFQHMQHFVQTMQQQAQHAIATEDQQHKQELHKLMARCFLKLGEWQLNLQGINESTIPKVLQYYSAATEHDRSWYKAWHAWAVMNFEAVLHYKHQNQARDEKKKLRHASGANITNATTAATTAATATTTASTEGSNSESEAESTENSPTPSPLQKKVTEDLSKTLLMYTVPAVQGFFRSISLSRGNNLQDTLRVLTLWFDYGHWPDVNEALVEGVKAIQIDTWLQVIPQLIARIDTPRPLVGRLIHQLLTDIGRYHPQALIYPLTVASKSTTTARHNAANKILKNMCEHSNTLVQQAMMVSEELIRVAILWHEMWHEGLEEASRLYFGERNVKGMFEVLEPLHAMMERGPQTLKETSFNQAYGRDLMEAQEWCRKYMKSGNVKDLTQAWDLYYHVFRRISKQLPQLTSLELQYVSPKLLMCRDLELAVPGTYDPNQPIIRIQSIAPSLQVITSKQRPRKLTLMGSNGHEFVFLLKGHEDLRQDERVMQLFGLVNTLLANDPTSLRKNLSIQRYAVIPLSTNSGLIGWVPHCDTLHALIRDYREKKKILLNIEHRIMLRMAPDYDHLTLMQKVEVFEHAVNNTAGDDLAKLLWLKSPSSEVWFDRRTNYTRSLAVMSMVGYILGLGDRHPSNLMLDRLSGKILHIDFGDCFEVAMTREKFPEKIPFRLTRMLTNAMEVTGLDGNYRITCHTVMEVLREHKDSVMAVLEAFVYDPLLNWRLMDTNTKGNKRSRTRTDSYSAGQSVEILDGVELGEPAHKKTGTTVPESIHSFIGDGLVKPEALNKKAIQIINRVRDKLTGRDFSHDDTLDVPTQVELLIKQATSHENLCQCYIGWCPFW

SMILES | IC50 [1, 3] | IC50 [2] | IC50 ([1]; read-out: mTOR Kinase Assay (Echo))
C[C@H]1COCCN1c1cc(C2(S(=O)(=O)c3ccccn3)CC2)nc(-c2ccc(NC(=O)NCCO)cc2)n1 [Example 28g, 3-(2-hydroxyethyl)-1-[4-[4-[(3S)-3-methylmorpholin-4-yl]-6-(1-pyridin-2-ylsulfonylcyclopropyl)pyrimidin-2-yl]phenyl]urea] | 1.18 nM | 11.8 nM | –
C[C@H]1COCCN1c1cc(C2(S(=O)(=O)c3ccc(Cl)cc3)CC2)nc(-c2ccc(NC(=O)NC3CC3)cc2)n1 [Example 27, 1-[4-[4-[1-(4-Chlorophenyl)sulfonylcyclopropyl]-6-[(3S)-3-methylmorpholin-4-yl]pyrimidin-2-yl]phenyl]-3-cyclopropylurea] | 1.11 nM | 1.44 nM | –
C[C@H]1COCCN1c1cc(C2(S(=O)(=O)C(C)(C)C)CC2)nc(-c2ccc(NC(=O)NC3CCC3)cc2)n1 [Example 18a, 1-[4-[4-(1-tert-butylsulfonylcyclopropyl)-6-[(3S)-3-methylmorpholin-4-yl]pyrimidin-2-yl]phenyl]-3-cyclobutylurea] | 7.14 nM | 9.67 nM | –
CNC(=O)Nc1ccc(-c2nc(N3CCOC[C@@H]3C)cc(C3(S(=O)(=O)c4ccc(Cl)cc4)CC3)n2)cc1 [Example 27e, 1-[4-[4-[1-(4-chlorophenyl)sulfonylcyclopropyl]-6-[(3S)-3-methylmorpholin-4-yl]pyrimidin-2-yl]phenyl]-3-methylurea] | 0.351 nM | 0.719 nM | –
C[C@H]1COCCN1c1cc(C2(S(=O)(=O)c3ccc(Cl)cc3)CC2)nc(-c2ccc(NC(=O)NCCO)cc2)n1 [Example 27h, 1-[4-[4-[1-(4-chlorophenyl)sulfonylcyclopropyl]-6-[(3S)-3-methylmorpholin-4-yl]pyrimidin-2-yl]phenyl]-3-(2-hydroxyethyl)urea] | 0.244 nM | 0.0856 nM | –
C[C@H]1COCCN1c1cc(C2(S(=O)(=O)c3ccc(Cl)cc3)CC2)nc(-c2ccc(NC(=O)NCCN(C)C)cc2)n1 [Example 27g, 1-[4-[4-[1-(4-chlorophenyl)sulfonylcyclopropyl]-6-[(3S)-3-methylmorpholin-4-yl]pyrimidin-2-yl]phenyl]-3-(2-dimethylaminoethyl)urea] | 21.3 nM | 18.9 nM | –
CCNC(=O)Nc1ccc(-c2nc(N3CCOC[C@@H]3C)cc(C3(S(=O)(=O)c4ccc(Cl)cc4)CC3)n2)cc1 [Example 27f, 3-[4-[4-[1-(4-chlorophenyl)sulfonylcyclopropyl]-6-[(3S)-3-methylmorpholin-4-yl]pyrimidin-2-yl]phenyl]-1-ethylurea] | 0.997 nM | 0.959 nM | –
CCNC(=O)Nc1ccc(-c2nc(N3CCOC[C@@H]3C)cc(C3(S(=O)(=O)CCNC(C)=O)CC3)n2)cc1 [Example 45, N-[2-[1-[2-[4-(Ethylcarbamoylamino)phenyl]-6-[(3S)-3-methylmorpholin-4-yl]pyrimidin-4-yl]cyclopropyl]sulfonylethyl]acetamide] | 7.17 nM | 21.9 nM | –
C[C@H]1COCCN1c1cc(C2(S(=O)(=O)c3ccncc3)CC2)nc(-c2ccc(NC(=O)NCCCO)cc2)n1 [Example 6k] | – | – | 1.86 nM

The remaining lines, values ahead:

IC50 [1, 3] | IC50 [2] | IC50 ([1]; read-out: mTOR Kinase Assay (Echo)) | SMILES
2.21 nM | 6.49 nM | – | C[C@H]1COCCN1c1cc(C2(S(=O)(=O)c3ncc[nH]3)CC2)nc(-c2ccc(NC(=O)NC3CC3)cc2)n1 [Example 40a, 3-cyclopropyl-1-[4-[4-[1-(1H-imidazol-2-ylsulfonyl)cyclopropyl]-6-[(3S)-3-methylmorpholin-4-yl]pyrimidin-2-yl]phenyl]urea]
2.64 nM | 1.61 nM | – | C[C@H]1COCCN1c1cc(C2(S(=O)(=O)c3ccccc3)CCC2)nc(-c2ccc(NC(=O)NC3CC3)cc2)n1 [Example 36bs, 1-[4-[4-[1-(benzenesulfonyl)cyclobutyl]-6-[(3S)-3-methylmorpholin-4-yl]pyrimidin-2-yl]phenyl]-3-cyclopropylurea]
4.88 nM | 3 nM | – | CNC(=S)Nc1ccc(-c2nc(N3CCOC[C@@H]3C)cc(C3(S(=O)(=O)c4ccccc4)CC3)n2)cc1 [Example 37ab, 1-[4-[4-[1-(benzenesulfonyl)cyclopropyl]-6-[(3S)-3-methylmorpholin-4-yl]pyrimidin-2-yl]phenyl]-3-methylthiourea]
1.88 nM | 1.05 nM | – | C[C@H]1COCCN1c1cc(C2(S(=O)(=O)c3ccccc3)CCC2)nc(-c2ccc(NC(=O)NCCO)cc2)n1 [Example 36bt, 1-[4-[4-[1-(benzenesulfonyl)cyclobutyl]-6-[(3S)-3-methylmorpholin-4-yl]pyrimidin-2-yl]phenyl]-3-(2-hydroxyethyl)urea]
1.05 nM | 1.49 nM | – | Cc1cnc(NC(=O)Nc2ccc(-c3nc(N4CCOC[C@@H]4C)cc(C4(S(C)(=O)=O)CC4)n3)cc2)cn1 [Example 36az, 3-[4-[4-[(3S)-3-methylmorpholin-4-yl]-6-(1-methylsulfonylcyclopropyl)pyri-midin-2-yl]phenyl]-1-(5-methylpyrazin-2-yl)urea]
1.89 nM | 0.922 nM | – | CCNC(=O)Nc1ccc(-c2nc(N3CCOC[C@@H]3C)cc(C3(S(=O)(=O)c4ccccc4)CC3)n2)cc1 [Example 36bg, 3-[4-[4-[1-(benzenesulfonyl)cyclopropyl]-6-[(3S)-3-methylmorpholin-4-yl]pyrimidin-2-yl]phenyl]-1-ethylurea]
2.55 nM | 2.58 nM | – | C[C@H]1COCCN1c1cc(C2(S(=O)(=O)c3ccccn3)CCC2)nc(-c2ccc(NC(=O)Nc3cnn(C)c3)cc2)n1 [Example 36aj, 1-[4-[4-[(3S)-3-methylmorpholin-4-yl]-6-(1-pyridin-2-ylsulfonylcyclobutyl)pyrimidin-2-yl]phenyl]-3-(1-methylpyrazol-4-yl)urea]
25.9 nM | 27.7 nM | – | N#CCCNC(=O)Nc1ccc(-c2nc(N3CCOCC3)cc(C3(S(=O)(=O)c4ccc(F)cc4)CC3)n2)cc1 [Example 36am, 3-(2-cyanoethyl)-1-[4-[4-[1-(4-fluorophenyl)sulfonylcyclopropyl]-6-morpholin-4-ylpyrimidin-2-yl]phenyl]urea]
3.79 nM | 3.06 nM | – | C[C@H]1COCCN1c1cc(C2(S(=O)(=O)CCCO)CC2)nc(-c2ccc(NC(=S)NCCO)cc2)n1 [Example 37i, 3-(2-hydroxyethyl)-1-[4-[4-[1-(3-hydroxypropylsulfonyl)cyclopro-pyl]-6-[(3S)-3-methylmorpholin-4-yl]pyrimidin-2-yl]phenyl]thiourea]
5.13 nM | 20.5 nM | – | C[C@H]1COCCN1c1cc(C2(S(C)(=O)=O)CC2)nc(-c2ccc(NC(=O)NCCCO)cc2)n1 [Example 36bb, 3-(3-hydroxypropyl)-1-[4-[4-[(3S)-3-methylmorpholin-4-yl]-6-(1-methylsulfonylcyclopropyl)pyri-midin-2-yl]phenyl]urea]
0.607 nM | 0.425 nM | – | CCNC(=O)Nc1ccc(-c2nc(N3CCOCC3)cc(C3(S(=O)(=O)c4nc(C)cs4)CC3)n2)cc1 [Example 42d, 1-ethyl-3-[4-[4-[1-[(4-methyl-1,3-thiazol-2-yl)sulfonyl]cyclopropyl]-6-morpholin-4-ylpyrimidin-2-yl]phenyl]urea]
1.16 nM | 1.03 nM | – | C[C@H]1COCCN1c1cc(C2(S(=O)(=O)c3ccc(F)cn3)CC2)nc(-c2ccc(NC(=O)NC3CC3)cc2)n1 [Example 48a, 3-cyclopropyl-1-[4-[4-[1-(5-fluoropyridin-2-yl)sulfonylcyclopropyl]-6-[(3S)-3-methylmorpholin-4-yl]pyrimidin-2-yl]phenyl]urea]
1.06 nM | 0.621 nM | – | CNC(=O)Nc1ccc(-c2nc(N3CCOC[C@@H]3C)cc(C3(S(=O)(=O)c4ccccc4)CC3)n2)cc1 [Example 36bj, 1-[4-[4-[1-(benzenesulfonyl)cyclopropyl]-6-[(3S)-3-methylmorpholin-4-yl]pyrimidin-2-yl]phenyl]-3-methylurea]
16.1 nM | 11.4 nM | – | CCNC(=S)Nc1ccc(-c2nc(N3CCOC[C@@H]3C)cc(C3(S(=O)(=O)CCCO)CC3)n2)cc1 [Example 37k, 1-ethyl-3-[4-[4-[1-(3-hydroxypropylsulfonyl)cyclopro-pyl]-6-[(3S)-3-methylmorpholin-4-yl]pyrimidin-2-yl]phenyl]thiourea]
16.1 nM | 18.7 nM | – | O=C(Nc1ccc(-c2nc(N3CCOCC3)cc(C3(S(=O)(=O)c4ccc(F)cc4)CC3)n2)cc1)NC1CC1 [Example 36al, 3-cyclopropyl-1-[4-[4-[1-(4-fluorophenyl)sulfonylcyclopropyl]-6-morpholin-4-ylpyrimidin-2-yl]phenyl]urea]
3.33 nM | 2.08 nM | – | C[C@H]1COCCN1c1cc(C2(S(=O)(=O)c3ccccc3)CC2)nc(-c2ccc(NC(=O)NCCCO)cc2)n1 [Example 36bl, 1-[4-[4-[1-(benzenesulfonyl)cyclopropyl]-6-[(3S)-3-methylmorpholin-4-yl]pyrimidin-2-yl]phenyl]-3-(3-hydroxypropyl)urea]
– | 259 nM | – | C[C@H]1COCCN1c1cc(C2(S(=O)(=O)c3ccccn3)CC2)nc(-c2ccc(NC(=O)NC3(CO)CC3)cc2)n1 [Example 36cv, 3-[1-(hydroxymethyl)cyclopropyl]-1-[4-[4-[(3S)-3-methylmorpholin-4-yl]-6-(1-pyridin-2-ylsulfonylcyclopropyl)pyrimidin-2-yl]phenyl]urea]
13.4 nM | – | – | CC[C@H]1COCCN1c1cc(C2(S(C)(=O)=O)CC2)nc(-c2ccc(NC(=O)Nc3cnn(C)c3)cc2)n1 [Example 84f, 1-[4-[4-[(3S)-3-ethylmorpholin-4-yl]-6-(1-methylsulfonylcyclopropyl)pyrimidin-2-yl]phenyl]-3-(1-methylpyrazol-4-yl)urea]
4.15 nM | – | – | C[C@H]1COCCN1c1cc(C2(S(=O)(=O)c3nccs3)CC2)nc(-c2ccc(NC(=O)NCCCO)cc2)n1 [Example 66a, 3-(3-hydroxypropyl)-1-[4-[4-[(3S)-3-methylmorpholin-4-yl]-6-[1-(1,3-thiazol-2-ylsulfonyl)cyclopropyl]pyrimidin-2-yl]phenyl]urea]
